Measurements published in the supplement of paper PMC10307832.

Key:
Assay in all cases: relative viability (nuclei count vs DMSO), 5 days (fraction); higher = more cells survive
[1] = compound: C=CCn1c(=O)c2cnc(Nc3ccc(N4CCN(C)CC4)cc3)nc2n1-c1cccc(C(C)(C)O)n1 [Adavosertib] + C[C@@H](Oc1cc(-c2cnn(C3CCNCC3)c2)cnc1N)c1c(Cl)ccc(F)c1Cl [Crizotinib] (partner 1 µM)
Method in brief: (§1)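 Medians of duplicate plates are given as relative viability. That measure is the nuclei count in treated wells divided by the count in vehicle wells. Counts were taken on 4× images of lung cancer cell lines in 1536-well plates, 5 days after pin-tool dosing the day after seeding with one drug alone or a fixed anchor-drug dose plus five library-drug doses (not always all listed) in √10 steps.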

[2] = compound: COc1nc(N)nc2c1ncn2[C@@H]1O[C@H](CO)[C@@H](O)[C@@H]1O [Nelarabine] + CC(=O)c1c(C)c2cnc(Nc3ccc(N4CCNCC4)cn3)nc2n(C2CCCC2)c1=O [Palbociclib] (partner 0.5 µM)
Method in brief: as §1

[3] = compound: COc1nc(N)nc2c1ncn2[C@@H]1O[C@H](CO)[C@@H](O)[C@@H]1O [Nelarabine] + Cc1nc(Nc2ncc(C(=O)Nc3c(C)cccc3Cl)s2)cc(N2CCN(CCO)CC2)n1 [Dasatinib] (partner 0.075 µM)
Method in brief: as §1

[4] = compound: COc1nc(N)nc2c1ncn2[C@@H]1O[C@H](CO)[C@@H](O)[C@@H]1O [Nelarabine] + O=C(CCCCCCC(=O)Nc1ccccc1)NO [Vorinostat] (partner 1 µM)
Method in brief: as §1

**Q.** Which relative viability ([1]; first compound 0.01 µM) does the source give for EMC-BAC-2 here?
**A.** 0.846

**Q.** And the relative viability ([1]; first compound 0.03162 µM)?
**A.** 0.754

**Q.** What about the relative viability ([1]; first compound 0.1 µM) of the same cell line?
**A.** 0.887

**Q.** And the relative viability ([1]; first compound 0.3162 µM)?
**A.** 0.811

**Q.** And the relative viability ([2]; first compound 0.01 µM)?
**A.** 0.539

**Q.** What about the relative viability ([2]; first compound 0.03162 µM) of the same cell line?
**A.** 0.514

**Q.** And the relative viability ([2]; first compound 0.1 µM)?
**A.** 0.512

**Q.** What about the relative viability ([2]; first compound 0.3162 µM) of the same cell line?
**A.** 0.529

**Q.** What about the relative viability ([2]; first compound 1 µM) of the same cell line?
**A.** 0.514

**Q.** And the relative viability ([3]; first compound 0.01 µM)?
**A.** 0.409

**Q.** What about the relative viability ([3]; first compound 0.03162 µM) of the same cell line?
**A.** 0.348

**Q.** And the relative viability ([3]; first compound 0.1 µM)?
**A.** 0.304

**Q.** What about the relative viability ([3]; first compound 0.3162 µM) of the same cell line?
**A.** 0.374

**Q.** What about the relative viability ([3]; first compound 1 µM) of the same cell line?
**A.** 0.356

**Q.** And the relative viability ([4]; first compound 0.01 µM)?
**A.** 0.47

**Q.** And the relative viability ([4]; first compound 0.03162 µM)?
**A.** 1.01

**Q.** And the relative viability ([4]; first compound 0.1 µM)?
**A.** 0.643

**Q.** And the relative viability ([4]; first compound 0.3162 µM)?
**A.** 0.441

**Q.** What about the relative viability ([4]; first compound 1 µM) of the same cell line?
**A.** 0.399
